Source: US20260345605A1, “THERAPEUTIC AGENTS FOR HEART FAILURE” (Ottawa Hospital Research Institute, priority 2023, published 2026)
One block for each compound: values may come before it.

Legend:
CDK4 = assay: pCDK4 Thr172 immunofluorescence and remodeling in primary cardiomyocytes; assay type: cell-based
Excerpt: (§1) Post treatment, the cells were washed, fixed, and were subjected to sequential staining of primary antibodies a Actinin and phospho-CDK4 (Thr172). The images were acquired using the Zeiss AxioVision SE64 Imaging software and analyzed using the ImageJ2 software.
Immunofluorescence was used to detect α-actinin, pCDK4 Thr172, and nuclei were stained with DAPI. […] The nuclear fluorescent intensity of pCDK4 Thr172 using the ImageJ software. The data are represented as Mean±Standard deviation.

[1] = tested on: phenylephrine induced left ventricular hypertrophy; settings: LV; HF markers; cited from earlier work
[2] = tested on: phenylephrine induced left ventricular hypertrophy; assay: Phenylephrine-induced left ventricular hypertrophy rat model: heart weight and echocardiography; assay type: in vivo, Sprague Dawley rat
Experimental: Animal Model Preparation. Sprague Dawley rats were continuously treated with phenylephrine (PE), an α-adrenergic agonist that causes vasoconstriction leading to increased afterload and decreased ventricular function, to create a left-ventricular dysfunction animal model. […] For chronic infusion of phenylephrine, Alzet® mini-osmotic pumps (2002, Durect® Corp) containing Phenylephrine (PE) (10 mg/kg/day) or PBS vehicle were surgically implanted dorsally and subcutaneously in each Sprague Dawley rat under isoflurane anaesthesia. The animals were allowed to develop left ventricular hypertrophy for 2 weeks following the osmotic pump implantation.
Echocardiography was performed, the animals were sacrificed at 3 weeks endpoint and the blood and tissue were harvested for further analysis.

cardiac fibrosis = settings: phenylephrine, reported; cited from earlier work
[3] = tested on: phospho-Histone 3 (Ser10); assay: phospho-Histone 3 (pH3 Ser10) staining in NRVM; assay type: cell-based, neonatal rat; settings: PE
Experimental: A one-way ANOVA test performed to assess statistical significance across treatment groups.
The effect of AZD1152-HQPA on cardiac remodeling was further validated using the phospho-Histone 3 (pH3 Ser10) staining which is the downstream target of aurora kinase B. The NRVMs were plated at a density of 2.5×10^4 cells onto 25 mm diameter collagen coated coverslip. The cells were treated with controls (hCT1, PE), AZD1152-HQPA followed by a combination of PE and AZD1152-HQPA.
as §1, with “phospho-Histone 3 (Ser10).” for “phospho-CDK4 (Thr172).”, “ImageJ” for “ImageJ2”, “software. […] The data are represented as Mean±Standard deviation.” for “software.”

[4] = tested on: neonatal rat ventricular cardiomyocytes; assay: Calcium transients (Fura2-AM) in neonatal rat ventricular cardiomyocytes; assay type: cell-based; settings: for contractility / contractile function: inferred from peak calcium transient, AUC and time to peak
Experimental: Method: Freshly isolated wildtype neonatal rat ventricular cardiomyocytes were plated onto laminin coated glass coverslides, rinsed once and then loaded with 1 μM Fura2-AM (Life Technologies) for 15 min at 37 °C. After washing the cells thrice with Tyrode solution, measuring chambers were transferred onto a Nikon Eclipse TE2000-U microscope equipped with a fluorescence detection system (IonOptix). Ca^2+ transient values were recorded according to the corresponding FRET experiments. F340/F380 values in Fura2-AM experiments were calculated from the ratios of 510 nm emission light measured at 340 and 380 nm excitations.

aurora kinase B = assay: pAurkB S727 immunofluorescence and remodeling in NRVM; assay type: cell-based, neonatal rat; settings: PE 100 μM
Experimental: Immunofluorescence was performed to validate and assess the effect of aurora B kinase inhibitor on cardiomyocyte remodeling. NRVMs were plated at a density of 2.5×10^4 cells onto 25 mm diameter collagen coated coverslip. Primary cardiomyocytes were incubated with control serum-free medium (Ctrl, SF medium), hCT1 (0.5 nM), PE (100 μM), AZD1152-HQPA (1.5 μM) and assessed for aurora kinase B activation using pAurkB s727 antibody staining. The cells were treated with a combination of PE and AZD1152 HQPA where the cells were stimulated with the drug for 4 hours following the PE treatment for 24 hours.
as §1, with “phospho-AurkB (S727).” for “phospho-CDK4 (Thr172).”, “software. Immunofluorescence was used to detect α-actinin, pAurkb S727, and nuclei were stained with DAPI.” for “software.”

Cyclin D1/CDK4 = settings: role: inhibitor; cited from earlier work
cardiomyocytes = assay: Overall observation on remodeling of treated cardiomyocytes; assay type: cell-based
Rb phosphorylation = settings: cited from earlier work
CDK6 = settings: role: inhibitor; cited from earlier work
[5] = systole and diastole, PE compared to control and LY2835219 group
[6] = LY2835219 alone and in rats subjected to phenylephrine
[7] = PE treated rats, 3 weeks LY2835219 75 mg/kg/day oral

AurkB activation (aurora kinase B): AurkB activation
Structure (SMILES): CNC[C@H](O)c1cccc(O)c1 [PE, phenylephrine]
CDK4 activation (CDK4; PE 100 μM): CDK4 activation | cardiomyocyte remodeling (CDK4; PE 100 μM): concentric hypertrophic remodeling was observed | effect of phenylephrine on left ventricle (background) [1]: myocardial hypertrophy of the LV, increased LV weight, systolic dysfunction, and increased expression of HF markers atrial natriuretic peptide and brain natriuretic peptide | Heart Weight/Body Weight ratio ([2]; PE 10 mg/kg/day, compared to sham (PBS), LY2835219 alone, and PE 2 weeks followed by 3 weeks LY2835219): significantly increased | heart size (whole heart image) ([2]; PE treated group compared to control and drug treatment group, FIG. 14): enlarged | cardiac output ([2]; PE treated rats, after 2 weeks): decreased | ejection fraction ([2]; PE treated rats, after 2 weeks): decreased | percentage fractional shortening ([2]; PE treated rats, after 2 weeks): decreased | stroke volume ([2]; PE treated rats, after 2 weeks): decreased | left ventricular internal diameter ([2]; PE treatment group): reduced | thickness of left ventricular anterior wall [2, 5]: increased thickness | thickness of left ventricular posterior wall [2, 5]: increased thickness | thickness of septal wall [2, 5]: increased thickness | pathways involved in cardiac fibrosis (background) (cardiac fibrosis): stimulate pathways involved in cardiac fibrosis | pH3 Ser10 staining [3]: Increased pH3 Ser10 staining | area under the curve (AUC) of calcium transient ([4]; compared to control, FIG. 11): much higher AUC | calcium transient levels ([4]; compared to control, FIG. 11): aberrant increase calcium transient levels | time to peak calcium transient ([4]; compared to control, FIG. 11): decreased time to peak calcium transient | contractility / contractile function [4]: defective contractile function of cardiomyocytes | cardiomyocyte remodeling (aurora kinase B): concentric hypertrophic remodeling was observed

Structure (SMILES): CCN1CCN(Cc2ccc(Nc3ncc(F)c(-c4cc(F)c5nc(C)n(C(C)C)c5c4)n3)nc2)CC1 [LY2835219]
CDK4 activation (CDK4; LY2835219 1.5 μM): inhibited CDK4 activation | pathological effect of PE (CDK4; drug for 4 hr following PE treatment for 24 hours): able to reverse the pathological effect of PE | inhibition of Cyclin D1/CDK4 (Cyclin D1/CDK4): low nanomolar potency | cardiomyocyte remodeling (cardiomyocytes): adaptive and compensatory remodeling that resembles a physiologic growth response, adding sarcomeres in series | Rb phosphorylation (Rb phosphorylation): inhibits Rb phosphorylation | cell cycle arrest (Rb phosphorylation): G1 arrest | effect in phenylephrine induced left ventricular hypertrophy ([2]; LY2835219 75 mg/kg/day oral, 3 weeks): anti-hypertrophic effect | cardiac output [2, 6]: improved | ejection fraction [2, 6]: improved | fractional shortening [2, 6]: improved | stroke volume [2, 6]: improved | PE effect on left ventricular internal diameter ([2]; PE 2 weeks followed by LY2835219 3 weeks, 75 mg/kg/day oral): reversed | cardiac function (ejection fraction, fractional shortening, stroke volume, cardiac output) ([2]; PE treated rats subjected to LY2835219 for 3 weeks, compared with control rats and PE treated rats): significantly enhanced cardiac function | PE effect on thickness of left ventricular anterior wall [2, 7]: reversed | PE effect on thickness of left ventricular posterior wall [2, 7]: reversed | PE effect on thickness of septal wall [2, 7]: reversed | area under the curve (AUC) of calcium transient ([4]; compared to control, FIG. 11): increased AUC compared to control | calcium transient levels ([4]; compared to control, FIG. 11): increase in calcium transient levels compared to control | contractility / contractile function [4]: improved contractility by modest increase in peak calcium transient levels and AUC with modest decrease in time to attain those peak levels | inhibition of CDK6 (CDK6): low nanomolar potency
